Patent publication US10780090B2, “Heteroaryl compounds useful as inhibitors of SUMO activating enzyme” (Millennium Pharmaceuticals, Inc., priority 2014, dated 2020)

Molecular target: recombinant human SAE enzyme (Homo sapiens (Human), UniProt Q9UBT2)
Assay: SAE HTRF enzyme assay
Format: biochemical
Conditions: for inhibition at 0.111 µM: read-out: Percent Inhibition
How it was run: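 This HTRF format monitors Sumo-Flag–Ubc9-GST thioester formation catalysed by 0.11 nM human SAE with 0.5 μM ATP over 105 min at 24° C. Inhibition is expressed at a single concentration or as IC50.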

[1] = SAE inhibition at compound concentration 0.111 μM
[2] = SAE inhibition, class symbols, legend in nM

Chain of recombinant human SAE enzyme (Q9UBT2 whole entry): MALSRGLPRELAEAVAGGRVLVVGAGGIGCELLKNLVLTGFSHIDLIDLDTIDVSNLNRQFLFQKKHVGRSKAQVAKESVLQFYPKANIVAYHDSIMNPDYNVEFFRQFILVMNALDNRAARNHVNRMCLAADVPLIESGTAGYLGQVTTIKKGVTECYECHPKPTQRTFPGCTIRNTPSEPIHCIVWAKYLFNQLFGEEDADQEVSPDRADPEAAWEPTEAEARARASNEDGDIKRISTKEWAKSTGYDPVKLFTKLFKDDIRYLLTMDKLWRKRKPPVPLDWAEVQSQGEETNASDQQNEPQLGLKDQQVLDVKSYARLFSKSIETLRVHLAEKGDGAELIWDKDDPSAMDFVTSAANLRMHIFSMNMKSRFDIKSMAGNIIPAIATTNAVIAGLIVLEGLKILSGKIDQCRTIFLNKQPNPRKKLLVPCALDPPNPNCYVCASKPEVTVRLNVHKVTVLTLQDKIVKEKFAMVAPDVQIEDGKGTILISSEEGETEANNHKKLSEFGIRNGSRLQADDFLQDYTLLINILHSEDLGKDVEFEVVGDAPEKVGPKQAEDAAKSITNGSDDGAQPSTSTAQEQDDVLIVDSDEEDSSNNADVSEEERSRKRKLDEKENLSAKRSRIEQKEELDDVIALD
Chain of recombinant human SAE enzyme (Q9UBE0 whole entry partner): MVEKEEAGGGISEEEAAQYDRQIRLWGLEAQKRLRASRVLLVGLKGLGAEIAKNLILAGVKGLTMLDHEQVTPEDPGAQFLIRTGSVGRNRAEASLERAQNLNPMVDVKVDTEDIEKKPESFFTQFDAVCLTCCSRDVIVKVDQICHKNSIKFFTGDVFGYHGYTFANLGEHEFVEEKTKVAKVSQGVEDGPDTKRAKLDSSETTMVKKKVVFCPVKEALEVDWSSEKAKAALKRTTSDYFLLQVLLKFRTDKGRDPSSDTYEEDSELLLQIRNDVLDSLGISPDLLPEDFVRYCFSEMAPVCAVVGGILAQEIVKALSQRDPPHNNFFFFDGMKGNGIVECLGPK

Question: How did the “Percent Inhibition” value (Concentration 0.111 μM) turn out when `Cc1sc(C(=O)c2cncnc2NC2CC(O)C(COS(N)(=O)=O)C2)cc1C1OCCc2ccccc21` (mixture of isomers) [I-256, [(1R,2S,4R)-4-{[5-({4-[(1R)-3,4-dihydro-1H-isochromen-1-yl]-5-methyl-2-thienyl}carbonyl)pyrimidin-4-yl]amino}-2-hydroxycyclopentyl]methyl sulfamate and [(1R,2S,4R)-4-{[5-({4-[(1S)-3,4-dihydro-1H-isochromen-1-yl]-5-methyl-2-thienyl}carbonyl)pyrimidin-4-yl]amino}-2-hydroxycyclopentyl]methyl sulfamate] was run?
Answer: The value was 100.

Question: What about the IC50 (class symbols A/B/C) of the same compound?
Answer: Its IC50 is less than 10 nM.

Question: With `NS(=O)(=O)OC[C@H]1C[C@@H](Nc2ncncc2C(=O)c2cc(CN3CCN(c4ccccc4)CC3)cs2)C[C@@H]1O` [I-241, [(1R,2S,4R)-2-hydroxy-4-{[5-({4-[(4-phenylpiperazin-1-yl)methyl]-2-thienyl}carbonyl)pyrimidin-4-yl]amino}cyclopentyl]methyl sulfamate] as the compound, how does the inhibition at 0.111 µM (Concentration 0.111 μM) read?
Answer: Its inhibition at 0.111 µM is 18%.

Question: And the IC50 (class symbols A/B/C)?
Answer: The IC50 was 100 to 1000 nM.

Question: What does the source list for `NS(=O)(=O)OCC1CC(Nc2ncncc2C(=O)c2cc(C(O)c3cc(Br)ccc3F)cs2)CC1O` (mixture of isomers) [I-19, [(1R,2S,4R)-4-{[5-({4-[(R)-(5-bromo-2-fluorophenyl)(hydroxy)methyl]-2-thienyl}carbonyl)pyrimidin-4-yl]amino}-2-hydroxycyclopentyl]methyl sulfamate and [(1R,2S,4R)-4-{[5-({4-[(S)-(5-bromo-2-fluorophenyl)(hydroxy)methyl]-2-thienyl}carbonyl)pyrimidin-4-yl]amino}-2-hydroxycyclopentyl]methyl sulfamate]?
Answer: Percent Inhibition (Concentration 0.111 μM): 100; IC50 (class symbols A/B/C): < 10 nM

Question: How did the “Percent Inhibition” value (Concentration 0.111 μM) turn out when `Cc1sc(C(=O)c2cncnc2N[C@@H]2C[C@H](COS(N)(=O)=O)[C@@H](O)[C@H]2O)cc1[C@@H]1NCCc2ccc(Br)cc21` (single isomer, unassigned) [I-247a, [(1R,2R,3S,4R)-4-{[5-({4-[(1R)-7-bromo-1,2,3,4-tetrahydroisoquinolin-1-yl]-5-methyl-2-thienyl}carbonyl)pyrimidin-4-yl]amino}-2,3-dihydroxycyclopentyl]methyl sulfamate or [(1R,2R,3S,4R)-4-{[5-({4-[(1S)-7-bromo-1,2,3,4-tetrahydroisoquinolin-1-yl]-5-methyl-2-thienyl}carbonyl)pyrimidin-4-yl]amino}-2,3-dihydroxycyclopentyl]methyl sulfamate] was run?
Answer: The value was 100.

Question: What about the IC50 (class symbols A/B/C) of the same compound?
Answer: The IC50 was less than 10 nM.

Question: Which results are given for `CC(N)(c1cccc(Cl)c1)c1csc(C(=O)c2cncnc2NC2CC(O)C(COS(N)(=O)=O)C2)c1` (mixture of isomers) [I-12, [(1R,2S,4R)-4-{[5-({4-[(1S)-1-amino-1-(3-chlorophenyl)ethyl]-2-thienyl}carbonyl)pyrimidin-4-yl]amino}-2-hydroxycyclopentyl]methyl sulfamate and [(1R,2S,4R)-4-{[5-({4-[(1R)-1-amino-1-(3-chlorophenyl)ethyl]-2-thienyl}carbonyl)pyrimidin-4-yl]amino}-2-hydroxycyclopentyl]methyl sulfamate]?
Answer: Percent Inhibition (Concentration 0.111 μM): 99; IC50 (class symbols A/B/C): < 10 nM

Question: For `NS(=O)(=O)OC[C@H]1C[C@@H](Nc2ncncc2C(=O)c2cc([C@H](O)c3cccc(Cl)c3)c(Cl)s2)C[C@@H]1O` (single isomer, unassigned) [I-9a, [(1R,2S,4R)-4-{[5-({5-chloro-4-[(R)-(3-chlorophenyl)(hydroxy)methyl]-2-thienyl}carbonyl)pyrimidin-4-yl]amino}-2-hydroxycyclopentyl]methyl sulfamate or [(1R,2S,4R)-4-{[5-({5-chloro-4-[(S)-(3-chlorophenyl)(hydroxy)methyl]-2-thienyl}carbonyl)pyrimidin-4-yl]amino}-2-hydroxycyclopentyl]methyl sulfamate], which “Percent Inhibition” value (Concentration 0.111 μM) is on record?
Answer: Its value is 99.

Question: And the IC50 (class symbols A/B/C)?
Answer: Its IC50 is less than 10 nM.

Question: With `NC(c1cccc(Cl)c1)c1cc(C(=O)c2cncnc2NC2CC(O)C(COS(N)(=O)=O)C2)sc1Cl` (mixture of isomers) [I-15, [(1R,2S,4R)-4-{[5-({4-[(R)-amino(3-chlorophenyl)methyl]-5-chloro-2-thienyl}carbonyl)pyrimidin-4-yl]amino}-2-hydroxycyclopentyl]methyl sulfamate and [(1R,2S,4R)-4-{[5-({4-[(S)-amino(3-chlorophenyl)methyl]-5-chloro-2-thienyl}carbonyl)pyrimidin-4-yl]amino}-2-hydroxycyclopentyl]methyl sulfamate] as the compound, how does the “Percent Inhibition” value (Concentration 0.111 μM) read?
Answer: The value was 100.

Question: And the IC50 (class symbols A/B/C)?
Answer: The IC50 was less than 10 nM.

Question: What does the source list for `Cc1sc(C(=O)c2cncnc2N[C@@H]2C[C@H](COS(N)(=O)=O)[C@@H](O)C2)cc1[C@@H]1OCOc2ccccc21` (single isomer, unassigned) [I-280b, [(1R,2S,4R)-4-{[5-({4-[(4R)-4H-1,3-benzodioxin-4-yl]-5-methyl-2-thienyl}carbonyl)pyrimidin-4-yl]amino}-2-hydroxycyclopentyl]methyl sulfamate or [(1R,2S,4R)-4-{[5-({4-[(4S)-4H-1,3-benzodioxin-4-yl]-5-methyl-2-thienyl}carbonyl)pyrimidin-4-yl]amino}-2-hydroxycyclopentyl]methyl sulfamate]?
Answer: Percent Inhibition [1]: 100%; IC50 [2]: < 10 nM

Question: What does the source list for `NS(=O)(=O)OC[C@H]1C[C@@H](Nc2ncncc2C(=O)c2cc(CNCc3ccccc3)cs2)C[C@@H]1O` [I-222, [(1R,2S,4R)-4-{[5-({4-(Benzylamino)methyl]-2-thienyl)carbonyl)pyrimidin-4-yl]amino}-2-hydroxycyclopentyl]methyl sulfamate]?
Answer: Percent Inhibition (Concentration 0.111 μM): 31; IC50 (class symbols A/B/C): 100 to 1000 nM

Question: For `C[C@@]1(c2csc(C(=O)c3cncnc3N[C@@H]3C[C@H](COS(N)(=O)=O)[C@@H](O)C3)c2)OCCc2ccc(Cl)cc21` (mixture of isomers) [I-317, [(1R,2S,4R)-4-{[5-({4-[(1R)-7-chloro-1-methyl-3,4-dihydro-1H-isochromen-1-yl]-2-thienyl}carbonyl)pyrimidin-4-yl]amino}-2-hydroxycyclopentyl]methyl sulfamate and [(1R,2S,4R)-4-{[5-({4-[(1S)-7-chloro-1-methyl-3,4-dihydro-1H-isochromen-1-yl]-2-thienyl}carbonyl)pyrimidin-4-yl]amino}-2-hydroxycyclopentyl]methyl sulfamate], which “Percent Inhibition” value [1] is on record?
Answer: The value was 97%.

Question: What about the IC50 [2] of the same compound?
Answer: The IC50 was less than 10 nM.

Question: How did the inhibition at 0.111 µM (Concentration 0.111 μM) turn out when `NS(=O)(=O)OC[C@H]1C[C@@H](Nc2ncncc2C(=O)c2cc(Cc3cccc(Br)c3)cs2)[C@H](O)[C@@H]1O` [I-26, {(1R,2R,3S,4R)-4-[(5-{[4-(3-Bromobenzyl)-2-thienyl]carbonyl}pyrimidin-4-yl)amino]-2,3-dihydroxycyclopentyl}methyl sulfamate] was run?
Answer: The inhibition at 0.111 µM was 100%.

Question: And the IC50 (class symbols A/B/C)?
Answer: The IC50 was less than 10 nM.

Question: With `CO[C@H](c1cccc(Cl)c1)c1cc(C(=O)c2cncnc2N[C@@H]2C[C@H](COS(N)(=O)=O)[C@@H](O)C2)sc1Cl` (single isomer, unassigned) [I-90b, [(1R,2S,4R)-4-{[5-({5-chloro-4-[(R)-(3-chlorophenyl)(methoxy)methyl]-2-thienyl}carbonyl)pyrimidin-4-yl]amino}-2-hydroxycyclopentyl]methyl sulfamate or [(1R,2S,4R)-4-{[5-({5-chloro-4-[(S)-(3-chlorophenyl)(methoxy)methyl]-2-thienyl}carbonyl)pyrimidin-4-yl]amino}-2-hydroxycyclopentyl]methyl sulfamate] as the compound, how does the “Percent Inhibition” value (Concentration 0.111 μM) read?
Answer: The value was 92.

Question: And the IC50 (class symbols A/B/C)?
Answer: The IC50 was 10 to 100 nM.

Question: For `Cc1sc(C(=O)c2cncnc2N[C@@H]2C[C@H](COS(N)(=O)=O)[C@@H](O)C2)cc1C1OCCc2oc(Cl)cc21` (single isomer, unassigned) [I-298a, [(1R,2S,4R)-4-{[5-({4-[(4R)-2-chloro-6,7-dihydro-4H-furo[3,2-c]pyran-4-yl]-5-methyl-2-thienyl}carbonyl)pyrimidin-4-yl]amino}-2-hydroxycyclopentyl]methyl sulfamate or [(1R,2S,4R)-4-{[5-({4-[(4S)-2-chloro-6,7-dihydro-4H-furo[3,2-c]pyran-4-yl]-5-methyl-2-thienyl}carbonyl)pyrimidin-4-yl]amino}-2-hydroxycyclopentyl]methyl sulfamate], which “Percent Inhibition” value [1] is on record?
Answer: The value was 34%.

Question: And the IC50 [2]?
Answer: The IC50 was 100 to 1000 nM.

Question: How did the inhibition at 0.111 µM (Concentration 0.111 μM) turn out when `NS(=O)(=O)OC[C@H]1C[C@@H](Nc2ncncc2C(=O)c2cc(C(=O)c3cccc(Cl)c3)c(Cl)s2)C[C@@H]1O` [I-207, {(1R,2S,4R)-4-[(5-{[5-Chloro-4-(3-chlorobenzoyl)-2-thienyl]carbonyl}pyrimidin-4-yl)amino]-2-hydroxycyclopentyl}methyl sulfamate] was run?
Answer: The inhibition at 0.111 µM was 51%.

Question: What about the IC50 (class symbols A/B/C) of the same compound?
Answer: Its IC50 is 100 to 1000 nM.

Question: How did the “Percent Inhibition” value [1] turn out when `Cc1nc2c(s1)CCO[C@H]2c1cc(C(=O)c2cncnc2N[C@@H]2C[C@H](COS(N)(=O)=O)[C@@H](O)C2)sc1C` (single isomer, unassigned) [I-287a, [(1R,2S,4R)-2-hydroxy-4-{[5-({5-methyl-4-[(4S)-2-methyl-6,7-dihydro-4H-pyrano[3,4-d][1,3]thiazol-4-yl]-2-thienyl}carbonyl)pyrimidin-4-yl]amino}cyclopentyl]methyl sulfamate or [(1R,2S,4R)-2-hydroxy-4-{[5-({5-methyl-4-[(4R)-2-methyl-6,7-dihydro-4H-pyrano[3,4-d][1,3]thiazol-4-yl]-2-thienyl}carbonyl)pyrimidin-4-yl]amino}cyclopentyl]methyl sulfamate] was run?
Answer: Its value is 9%.

Question: And the IC50 [2]?
Answer: Its IC50 is 100 to 1000 nM.

Question: How did the “Percent Inhibition” value [1] turn out when `NS(=O)(=O)OC[C@H]1C[C@@H](Nc2ncncc2C(=O)c2ccc([C@@H]3OCCc4c(Cl)cccc43)s2)C[C@@H]1O` (mixture of isomers) [I-325, [(1R,2S,4R)-4-{[5-({5-[(1R)-5-chloro-3,4-dihydro-1H-isochromen-1-yl]-2-thienyl}carbonyl)pyrimidin-4-yl]amino}-2-hydroxycyclopentyl]methyl sulfamate and [(1R,2S,4R)-4-{[5-({5-[(1S)-5-chloro-3,4-dihydro-1H-isochromen-1-yl]-2-thienyl}carbonyl)pyrimidin-4-yl]amino}-2-hydroxycyclopentyl]methyl sulfamate] was run?
Answer: Its value is 60%.

Question: What about the IC50 [2] of the same compound?
Answer: The IC50 was 10 to 100 nM.
